Results: patent US20230150951A1, “2,5- OR 2,6-DISUBSTITUTED HYDROQUINONE DERIVATIVES WITH AT LEAST ONE CARBOXY, SULFO OR AMIDO GROUP USEFUL AS MEDICAMENTS” (OM PHARMA SA, priority 2020, published 2023)
Like-named read-outs stand apart in the source and are kept apart here.

What was measured:
Format in all cases: cell-based
IL-9 = assay: Cytokine release after LPS induction on human whole blood: IL-9
Method: (§1) Aim of this in vitro method is to assess compounds effects on release of a panel of cytokines from whole blood following lipopolysaccharide (LPS) induced inflammatory reaction. Whole blood was incubated with compounds for 1 h prior to LPS induction. Cytokine levels in blood were measured using a multiplex FACS-based panel.
(§2) IC50 values determined for the tested compounds expressed in microM [μM] and the values for the inhibition of cytokines were listed for each compound.
(§3) Effect on cytokines release after LPS induction was performed on the compounds dissolved in DMSO or H2O to reach 10-fold concentrated stock solutions and dissolved in culture media.
(§4) Test system: Whole blood was removed from a single donor (into lithium heparin coated tubes; BD Vacutainer; 367886) and diluted 1:5 with RPMI 1640 (Thermo Fisher, 61870036). Within 30 minutes of sampling, blood was incubated with compounds for 1 h prior to LPS stimulation (O111:B4—Sigma L4391; 10 ng/ml final concentration). Stimulation continued under standard cell culture conditions (37° C. with 5% CO2) overnight (18 h), after which plates were centrifuged and supernatant removed and frozen at −80° C. until used for analyses.
(§5) Dilution of test compounds: 10×concentrated solutions (concerning to the final assay concentrations) of each test compound were prepared with the appropriate solvent (in DMSO or in water). These 10× compound solutions (10 μl) were then added to 90 μl pre-diluted whole blood (whole blood: RPMI1640, 1:5) resulting in the final assay concentration.
(§6) Test method: Diluted whole blood (80 μl) was pre-incubated with compounds (10 μl) to give final assay concentrations of 100, 30, 10, 3, 1, 0.3 and 0.1×10^−6M. Blood was incubated at 37° C. with 5% CO2 for 1 h. LPS was diluted in cell culture media to a concentration of […]; 10 μl was added to the whole blood to give a final concentration of 10 ng/ml. Plates were incubated at 37° C. for 18 h. Plates were centrifuged at 3,000 RPM for 5 minutes at 4° C. and supernatant removed and frozen at −80° C. until FACS analysis was carried out.
(§7) Cytokine release was measured using a custom multiplex system (ELISA Genie) according to manufacturers instructions. Prepared samples were run on an Attune NxT flow cytometer (Thermo Fisher).
(§8) Quantification of cytokine release inhibition: known concentration standards were run as part of the cytokine panel to allow quantification of each cytokine concentration in each sample. This was carried out using FCAP Array v3.0 software.
(§9) Results: The dose response relationship on cytokine release following LPS induction of inflammatory response in whole blood was assessed for all compounds. IC50 values were determined for each compound for a panel of cytokines (GM-CSF, IFN-gamma, IL-1beta, IL-2, IL-4, IL-5, IL-6, IL-8, IL-9, IL-10, IL-12p40, IL-13, IL-17A, IL-17F, IL-18, IL-21, IL-22, IL-33, TGF-beta, TNF-alpha, TNF-beta).

Human neutrophils = assay: Neutrophil adhesion under static conditions; conditions: fMLP-stimulated adhesion to fibrinogen; method: 40 μM and 80 μM, concentration of the value not stated
How it was run: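 Donor buffy-coat neutrophils (3×10^6/ml, PBS with Ca/Mg, 10% FCS, pH 7.2) preincubated 30 min at 37° C with 40 μM or 80 μM compound, then stimulated 1 min at 37° C with 1 nM fMLP on fibrinogen-coated glass. Adherent cells fixed and counted by computer; mean ± SD, unpaired t-test.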

TGF-beta = assay: Cytokine release after LPS induction on human whole blood: TGFβ
Method: as §1, §2, §3, §4, §5, §6, §7, §8, §9

IL-1beta = assay: Cytokine release after LPS induction on human whole blood: IL-1β
Method: as §1, §2, §3, §4, §5, §6, §7, §8, §9

GM-CSF = assay: Cytokine release after LPS induction on human whole blood: GM-CSF
Method: as §1, §2, §3, §4, §5, §6, §7, §8, §9

TNF-alpha = assay: Cytokine release after LPS induction on human whole blood: TNFα
Method: as §1, §2, §3, §4, §5, §6, §7, §8, §9

IL-21 = assay: Cytokine release after LPS induction on human whole blood: IL-21
Method: as §1, §2, §3, §4, §5, §6, §7, §8, §9

[1] = Homo sapiens, LPS 10 ng/ml, 18 h, read-out: Whole Blood: IL-9 IC50
[2] = human whole blood, inhibition of LPS induced inflammation, read-out: IC50 IL-9
[3] = Homo sapiens, LPS 10 ng/ml, 18 h, read-out: Whole Blood: TGFβ IC50
[4] = human whole blood, inhibition of LPS induced inflammation, read-out: IC50 TGFbeta
[5] = Homo sapiens, LPS 10 ng/ml, 18 h, read-out: Whole Blood: IL-1β IC50
[6] = human whole blood, inhibition of LPS induced inflammation, read-out: IC50 IL-1b
[7] = Homo sapiens, LPS 10 ng/ml, 18 h, read-out: Whole Blood: GM-CSF IC50
[8] = human whole blood, inhibition of LPS induced inflammation, read-out: IC50 GM-CSF
[9] = Homo sapiens, LPS 10 ng/ml, 18 h, read-out: Whole Blood: TNF α IC50
[10] = human whole blood, inhibition of LPS induced inflammation, read-out: IC50 TNFa
[11] = Homo sapiens, LPS 10 ng/ml, 18 h, read-out: Whole Blood: IL-21 IC50
[12] = human whole blood, inhibition of LPS induced inflammation, read-out: IC50 IL-21

IC50 (IL-9; [1]) [µM] | IC50 (IL-9; [2]) [µM] | IC50 (TGF-beta; [3]) [µM] | IC50 (TGF-beta; [4]) [µM] | IC50 (IL-1beta; [5]) [µM] | IC50 (IL-1beta; [6]) [µM] | IC50 (GM-CSF; [7]) [µM] | IC50 (GM-CSF; [8]) [µM] | IC50 (TNF-alpha; [9]) [µM] | IC50 (TNF-alpha; [10]) [µM] | IC50 (IL-21; [11]) [µM] | IC50 (IL-21; [12]) [µM] | SMILES | Neutrophil adhesion inhibition (Human neutrophils) [%]
18.9 | 18.9 | > 100 | 100 | > 100 | 100 | > 100 | 100 | 0.11 | 0.11 | 8.01 | 8.01 | O=C(O)c1cc(O)ccc1NC(=O)c1cc(O)cc(C(=O)Nc2ccc(O)cc2C(=O)O)c1O [IIc-009a, 2-(3-(2-carboxy-4-hydroxyphenylaminocarbonyl)-2,5-dihydroxybenzamido)-5-hydroxyl benzoic acid] | 53.15
26.8 | 26.8 | > 100 | 100 | > 100 | 100 | > 100 | 100 | 0.98 | 0.98 | > 100 | 100 | CCOC(=O)c1cc(NC(=O)c2cc(O)c(C(=O)OCC)cc2O)cc(NC(=O)c2cc(O)c(C(=O)OCC)cc2O)c1 [Ib-010a-E3, ethyl 3,5-bis(2,5-dihydroxy-4-ethoxycarbonylbenzoylamino)benzoate] | 79.5

More lines, now with the values behind:

SMILES | IC50 (IL-9; [1]) [µM] | IC50 (IL-9; [2]) [µM] | IC50 (TGF-beta; [3]) [µM] | IC50 (TGF-beta; [4]) [µM] | IC50 (IL-1beta; [5]) [µM] | IC50 (IL-1beta; [6]) [µM] | IC50 (GM-CSF; [7]) [µM] | IC50 (GM-CSF; [8]) [µM] | IC50 (TNF-alpha; [9]) [µM] | IC50 (TNF-alpha; [10]) [µM] | IC50 (IL-21; [11]) [µM] | IC50 (IL-21; [12]) [µM] | Neutrophil adhesion inhibition (Human neutrophils) [%]
O=C(O)c1cc(O)c(C(=O)Nc2ccccc2C(=O)O)cc1O [Ia-001a, 4-(2-carboxyphenylaminocarbonyl)-2,5-dihydroxybenzoic acid] | 5.63 | 5.63 | > 100 | 100 | 34.4 | 34.4 | > 100 | 100 | 0.02 | 0.02 | > 100 | 100 | 44.3
O=C(O)c1ccccc1CNC(=O)c1cc(O)cc(C(=O)O)c1O [IIa-053a, 3-(2-Carboxyphenylmethylaminocarbonyl)-2,5-dihydroxybenzoic acid] | 1.41 | 1.41 | > 100 | 100 | > 100 | 100 | > 100 | 100 | 0.02 | 0.02 | > 100 | 100 | 20
O=C(O)c1cc(O)c(C(=O)Nc2ccccc2-c2nnn[nH]2)cc1O [Ia-001a-Tz, 4-(2-(1H-tetrazol-5-yl)phenyl-aminocarbonyl)-2,5-dihydroxybenzoic acid] | 8.63 | 8.63 | > 100 | 100 | > 100 | 100 | > 100 | 100 | 0.63 | 0.63 | > 100 | 100 | 69.75
CC(=O)N(Cc1cc(O)c(C(=O)O)cc1O)Cc1cc(O)c(C(=O)O)cc1O [IIIc-057a, N,N-Bis(4-carboxy-2,5-dihydroxyphenylmethyl)acetamide] | 11.1 | 11.1 | > 100 | 100 | 16.2 | 16.2 | > 100 | 100 | 0.15 | 0.15 | 1.56 | 1.56 | 40.04
O=C(O)c1cc(O)c(C(=O)Nc2ccc(-c3nnn[nH]3)cc2)cc1O [Ia-003a-Tz, 4-(4-(1H-tetrazol-5-yl)phenyl-aminocarbonyl)-2,5-dihydroxybenzoic acid] | 3.62 | 3.62 | > 100 | 100 | > 100 | 100 | > 100 | 100 | 0.18 | 0.18 | 1.49 | 1.49 | 30.33
O=C(O)Cc1cc(O)c(C(=O)Nc2c(C(=O)O)cccc2C(=O)O)cc1O [IIIa-013a, 2-(4-(carboxymethyl)-2,5-dihydroxybenzamido)isophthalic acid] | 11.9 | 11.9 | > 100 | 100 | > 100 | 100 | 27.8 | 27.8 | 0.51 | 0.51 | 1.63 | 1.63 | 30.667
